According to patent US8431131B2, “CD38 and obesity” (Mayo Foundation for Medical Education and Research, priority 2007, dated 2013):

Legend:
[1] = tested on: Ca2+ release induced by oxytocin; assay: Oxytocin-induced Ca2+ release in smooth muscle cells (control experiments); format: cell-based, mice; conditions: same conditions as p53 experiment
acetylated P53 = assay: Acetylated p53 immuno-staining in cultured smooth muscle cells (measure of endogenous SIRT activity); format: cell-based, mice; conditions: 100 μM, four to six hours
Experimental: (§1) FIG. 8. The effect of resveratrol and sirtinol upon the cADPR system. In A, ADP ribosyl cyclase activity was measured in liver plasma membranes using NGD as a substrate. Mice were treated with 100 μM of a test drug: DTT (dithiothreitol), resverastrol (Resv), or sirtinol. The control mice received no addition. Similar results were obtained using purified Aplysia ADPribosyl cyclase. In B, cADPR-induced Ca^2+ was measured in sea urchin egg homogenates. Ca^2+ was induced by 100 nM of cADPR with no further additions, or with 1 minute pre-incubation of 100 μM of the testing drugs 8-Br-cADPR (8-Br), resveratrol (Resv), or sirtinol. In C, experiments were conducted in smooth muscle cells in culture as described in FIG. 1E. Four to six hours before fixation and staining with acetylated P53 antibody, cells were treated with 100 μM of the testing drugs. 3-Deaza-cADPR is a cell permeable cADPR agonist. […] All experiments were repeated three to four times. The asterisk denotes significant differences between control and treatment.
For experiments, cells were made quiescent by replacing the growth medium with SmBM without serum or growth factors. Cell medium was again replaced with SmBM containing testing agents solubilized in 0.1% DMSO or water added to the final concentrations.
Smooth muscle cells were obtained as described above. Cells were fixed in suspension in PBS plus 2% paraformaldehyde for 20 minutes at room temperature with constant agitation, and cells were washed three times for 10 minutes with TBS-Triton X-100 (0.1%). After that, cells were incubated in blocking buffer (TBS, 30 mM glycine, and 5% BSA) for 60 minutes and incubated with anti-acetylated p53 rabbit polyclonal antibody (1:1000) (Abcam, Inc.; Cambridge, Mass.) overnight at 4° C. with constant agitation. […]
Laser confocal images were obtained using the Olympus Fluoview laser scanning confocal microscopy, with objective Olympus UplanApo oil, 100×, 1.35 numerical aperture. Nuclei were excited at 543 nm, and their emission recorded at 570 nm.

SIRT1 = molecular target: T1, SIRT1 (Homo sapiens, UniProt Q96EB6); assay: Effect of CD38 metabolites on SIRT1 activity; format: biochemical
T1 construct: purchased Biomol International, LP
T1 sequence (Q96EB6 1-747): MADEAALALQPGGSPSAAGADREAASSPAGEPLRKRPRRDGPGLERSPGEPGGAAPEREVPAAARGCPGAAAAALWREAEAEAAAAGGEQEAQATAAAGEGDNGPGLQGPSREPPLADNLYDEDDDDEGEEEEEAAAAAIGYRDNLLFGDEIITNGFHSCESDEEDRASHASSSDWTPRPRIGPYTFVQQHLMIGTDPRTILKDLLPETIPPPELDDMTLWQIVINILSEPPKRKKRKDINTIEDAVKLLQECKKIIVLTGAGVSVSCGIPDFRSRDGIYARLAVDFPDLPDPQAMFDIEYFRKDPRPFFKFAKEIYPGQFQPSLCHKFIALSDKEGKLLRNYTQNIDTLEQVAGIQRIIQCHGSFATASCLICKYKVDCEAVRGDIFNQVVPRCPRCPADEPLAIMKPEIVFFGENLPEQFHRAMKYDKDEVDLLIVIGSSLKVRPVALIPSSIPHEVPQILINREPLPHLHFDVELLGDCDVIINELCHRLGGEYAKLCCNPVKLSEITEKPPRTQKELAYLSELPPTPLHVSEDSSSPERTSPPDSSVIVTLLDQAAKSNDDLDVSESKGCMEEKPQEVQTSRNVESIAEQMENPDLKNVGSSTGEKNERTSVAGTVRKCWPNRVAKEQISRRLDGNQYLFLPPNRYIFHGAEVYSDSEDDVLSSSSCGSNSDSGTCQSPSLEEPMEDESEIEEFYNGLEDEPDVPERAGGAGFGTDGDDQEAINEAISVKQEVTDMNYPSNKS
Experimental: SIRT1 polypeptide activity was determined using the SIRT1 Fluorimetric Kit (Biomol International, LP; Plymouth Meeting, Pa.) according to the manufacturer's instructions. Briefly, nuclei prepared from wild-type or CD38 knockout mice (1 μg protein/well) were incubated in 40 mM Tris-HCl (pH 7.4) containing human recombinant SIRT1 (1 U/assay), 500 μM NAD+, and 100 μM Flour de Lys-SIRT1 substrate for 30 minutes at 37° C. Following incubation, the reaction was terminated by addition of a solution containing Flour de Lys Developer and 2 mM nicotinamide. Values were determined by reading fluorescence on a fluorimetric plate reader (Spectramax Gemini XPS; Molecular Devices; Sunnyvale, Calif.) with an excitation wavelength of 360 nm and emitted wavelength of 460 nm. Calculation of net fluorescence expressed as percent of control included the subtraction of a blank consisting of buffer containing no NAD+. Endogenous SIRT polypeptide activity was determined as described above with the exception that no recombinant SIRT enzyme was added to the reaction mixture and that the nuclear preparations were sonicated before the assay. The data were expressed as NAD stimulated deacetylation.
CD38 metabolites were tested for an effect on SIRT1 activity.

CD38 polypeptide = molecular target: T2, CD38 polypeptide (Homo sapiens, UniProt P28907); assay: CD38 NADase activity assay with etheno-NAD as substrate; format: biochemical; conditions: 1 mM, 10 minutes incubation
T2 sequence (P28907 1-300): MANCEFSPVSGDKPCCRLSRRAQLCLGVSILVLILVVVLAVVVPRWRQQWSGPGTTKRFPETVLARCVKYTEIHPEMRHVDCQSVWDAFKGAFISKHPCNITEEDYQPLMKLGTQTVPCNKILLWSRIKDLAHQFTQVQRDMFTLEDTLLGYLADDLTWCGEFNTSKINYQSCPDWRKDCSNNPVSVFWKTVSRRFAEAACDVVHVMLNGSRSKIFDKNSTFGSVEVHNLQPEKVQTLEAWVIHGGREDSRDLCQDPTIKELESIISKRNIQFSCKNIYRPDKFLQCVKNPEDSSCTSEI
Excerpt: Agents that can inhibit CD38 expression or activity in cells can be identified by screening candidate agents (e.g., from synthetic compound libraries and/or natural product libraries). Candidate agents can be obtained from any commercial source and can be chemically synthesized using methods that are known to those of skill in the art. Candidate agents can be screened and characterized using in vitro cell-based assays, cell free assays, and/or in vivo animal models. For example, a CD38 NADase assay can be used to identify CD38 antagonists. NADase activity can be determined using etheno-NAD. Enzyme preparations (e.g., purified CD38) can be incubated in a medium containing, for example, 0.2 mM […], 0.25 M sucrose, and 40 mM Tris-HCl (pH 7.2) at 37° C. NADase activity can be determined by measuring the change in fluorescence over time at, for example, 300 nm excitation and 410 nm emission. Candidate agents can be added to the CD38 assay, and a decrease of the NADase activity compared to control can be determined. […]
ADP-ribosyl cyclase polypeptide activity was measured using the NGD technique as described herein, and NADase polypeptide activity was determined using etheno-NAD as described elsewhere (Johnson et al., Diabetes, 55:2737-2746 (2006)). […] Activity was determined by measuring the change in fluorescence over time at 300 nm excitation and 410 nm emission. […]

[2] = tested on: high fat diet-induced obesity; assay: High fat diet-induced obesity in mice; format: in vivo; conditions: 30 mg/kg/day intraperitoneal, two weeks of HFD
Experimental: FIG. 9. […] Wild type mice were treated with resveratrol (a SIRT stimulator), and CD38 (−/−) mice were treated with Sirtinol (a SIRT antagonist) during 2 weeks of high fat diet. […] The number of animals in each group was between four and six.
Metabolic Studies and Diet At one year of age, CD38 (−/−) mice were placed on either a normal caloric diet (NCD; diet number 3807, KLIBA-NAFAG) or an HFD (AIN-93G modified to provide 60% of calories from fat, Researchdiets) ad libitum and monitored for six weeks. Body weight was recorded weekly, and food intake was measured for seven consecutive days. Oxygen consumption and energy expenditure (ER) measurements were performed in mice fed HFD for four weeks, and quantification of blood metabolites were performed. For the experiments using resveratrol and sirtinol, the HFD was supplemented with daily intraperitoneal injections of 30 mg/kg of drug (or vehicle) for two weeks. Cultured Smooth Muscle Cells from Wild-Type and CD38 Knockout Mice
Wild type mice were treated with 30 mg/kg/day of resveratrol, and CD38 (−/−) were treated with the same dose of sirtinol to determine the role of the SIRT enzymes upon high fat diet-induced obesity.

[3] = tested on: cADPR-induced Ca2+ release; assay: cADPR-induced Ca2+ release in sea urchin egg homogenates; format: biochemical, Lytechinus pictus; conditions: 100 nM cADPR, 1 minute pre-incubation with 100 μM drug
Experimental: as §1, with “Similar results were obtained using purified Aplysia ADPribosyl cyclase.” left out, “treatment. cADPR-induced Ca^2+ release was determined in sea urchin egg homogenates using fluo-3 as a Ca^2+ indicator as described elsewhere (Chini, Braz. J. Med. Biol. Res., 35:543-547 (2002)). […] Fluo-3 fluorescence was monitored at 490 nm excitation and 535 nm emission in a 250-μL cuvette, held at 17° C. with a circulating water bath and continuously mixed with a magnetic stirring bar, in a Hitachi spectrofluorometer (F-2000).” for “treatment.”

ADP ribosyl cyclase = ADP ribosyl cyclase activity (cADPR synthesis) in liver plasma membranes using NGD as substrate; format: biochemical, mice; conditions: 100 μM test drug
Experimental: as §1
ADP-ribosyl cyclase polypeptide activity was measured using the NGD technique as described herein, and NADase polypeptide activity was determined using etheno-NAD as described elsewhere (Johnson et al., Diabetes, 55:2737-2746 (2006)). […] Activity was determined by measuring the change in fluorescence over time at 300 nm excitation and 410 nm emission.

## 3-Deaza-cADPR
[1]
  effect on oxytocin-induced Ca2+ release: increased oxytocin effect

## N=c1c2nc(Br)n3c2ncn1C1OC(COP(=O)(O)OP(=O)(O)OCC2OC3C(O)C2O)C(O)C1O (centres unmarked) [8-Br-cADPR]
[1]
  effect on oxytocin-induced Ca2+ release: blocked Ca^2+ release induced by oxytocin
Acetylated P53; smooth muscle cells
  levels of p53 acetylation in cells: neither the cell permeable cADPR antagonist (8-br-cADPR) nor the cADPR agonist (3-deaza-cADPR) had any effect

## NC(=O)c1ccc[n+]([C@@H]2O[C@H](COP(=O)([O-])OP(=O)(O)OC[C@H]3O[C@@H](n4cnc5c(N)ncnc54)[C@H](O)[C@@H]3O)[C@@H](O)[C@H]2O)c1 [NAD]
SIRT1
  effect on SIRT1 activity: exhibited an effect

## NC(=O)c1cccnc1 [nicotinamide]
CD38 polypeptide
  CD38 NADase activity: substantial inhibition
SIRT1
  effect on SIRT1 activity: exhibited an effect

## Oc1ccc(C=Cc2cc(O)cc(O)c2)cc1 [resveratrol]
[2]; wild type mice
  protection against high fat diet-induced obesity: protected against high fat induced obesity
Acetylated P53; smooth muscle cells from wild type mice
  acetylated p53 level: decreased acetylated p53
[3]
  effect upon cADPR-induced Ca2+ release: Neither resveratrol (a SIRT activator) nor sirtinol (a SIRT inhibitor) exhibited any effect
ADP ribosyl cyclase
  effect upon cADPR synthesis (ADP ribosyl cyclase activity): Neither resveratrol (a SIRT activator) nor sirtinol (a SIRT inhibitor) exhibited any effect

## CC(NC(=O)c1ccccc1/N=C/c1c(O)ccc2ccccc12)c1ccccc1 (centres unmarked) [sirtinol]
[2]; CD38 (−/−) mice
  protective effect of CD38 knock out upon high fat diet-induced obesity: abrogated
  weight gain compared with vehicle treated CD38 (−/−) mice: gained a statistically significant amount of weight
Acetylated P53; smooth muscle cells from CD38 (−/−) mice
  acetylated p53 level: increased acetylated p53
ADP ribosyl cyclase
  effect upon cADPR synthesis (ADP ribosyl cyclase activity): nor sirtinol (a SIRT inhibitor) exhibited any effect
